According to ChEMBL document CHEMBL3244160, “Novel arabinofuranosyl derivatives of cytosine resistant to enzymatic deamination and possessing potent antitumor activity” (J Med Chem, 1978):

What was measured:
[1] = system: L1210; assay: Antitumor activity against mouse L1210 cells allografted in DBA/2 HaDD mouse assessed as survival at 75 mg/kg, ip bid administered for 2 days (reference value: 8.7 days); assay type: functional; settings: route intraperitoneal
[2] = Stability of the compound in presence of CR/dCR deaminase; assay type: ADME
[3] = system: L1210; assay: Cytotoxicity against mouse L1210 cells assessed as growth inhibition; assay type: functional
[4] = system: HeLa; assay: Cytotoxicity against human HeLa cells assessed as growth inhibition; assay type: functional
[5] = system: L1210; assay: Antitumor activity against mouse L1210 cells allografted in DBA/2 HaDD mouse assessed as survival at 40 mg/kg, ip bid administered for 2 days (reference value: 8.7 days); assay type: functional; settings: route intraperitoneal
[6] = system: MOLT-4; assay: Cytotoxicity against human MOLT4F cells assessed as growth inhibition; assay type: functional

In the case of `Nc1ccn([C@@H]2O[C@H](CO)[C@@H](O)[C@@H]2N)c(=O)n1`, the Survival [1] is reported as >120 days, the Stability [2] is reported as “Stable” and the GI50 [3] is reported as 4000 nM. For the same molecule, the GI50 [4] was 30000 nM.

In the case of `[N-]=[N+]=N[C@H]1[C@H](O)[C@@H](CO)O[C@H]1n1ccc(N)nc1=O` [CYTARAZID], the Survival [5] is reported as >120 days, the Stability [2] is reported as “Stable” and the GI50 [3] is reported as 600 nM. It also gave a GI50 [4] of 200 nM and a GI50 [6] of 70 nM.
